# Legend:
# [1] = target: Voltage-gated inwardly rectifying potassium channel KCNH2 (Homo sapiens, UniProt Q12809); test: Inhibition of human ERG
# Homo sapiens = species on record: Homo sapiens; test: Selectivity index, ratio of IC50 for BACE2 (unknown origin) to IC50 for BACE1 (unknown origin)
# Beta-secretase 1 [2] = target: T1, Beta-secretase 1 (Homo sapiens, UniProt P56817); test: Inhibition of BACE1 (unknown origin)
# Beta-secretase 2 = target: T2, Beta-secretase 2 (Homo sapiens, UniProt Q9Y5Z0); test: Inhibition of BACE2 (unknown origin)
# T2 sequence (Q9Y5Z0 whole entry): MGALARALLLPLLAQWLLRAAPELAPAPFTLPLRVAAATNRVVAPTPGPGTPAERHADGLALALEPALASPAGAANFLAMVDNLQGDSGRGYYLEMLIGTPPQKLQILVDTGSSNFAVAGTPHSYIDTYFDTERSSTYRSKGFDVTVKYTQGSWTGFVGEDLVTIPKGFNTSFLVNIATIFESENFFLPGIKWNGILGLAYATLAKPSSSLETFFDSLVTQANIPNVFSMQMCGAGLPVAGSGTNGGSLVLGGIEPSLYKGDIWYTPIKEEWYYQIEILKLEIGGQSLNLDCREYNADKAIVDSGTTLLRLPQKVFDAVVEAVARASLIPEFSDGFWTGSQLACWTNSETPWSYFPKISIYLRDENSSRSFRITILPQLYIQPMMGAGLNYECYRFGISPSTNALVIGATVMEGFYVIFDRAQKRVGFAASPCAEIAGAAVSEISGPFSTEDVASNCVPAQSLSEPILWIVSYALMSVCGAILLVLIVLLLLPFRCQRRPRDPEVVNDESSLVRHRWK
# [3] = Metabolic stability in dog liver microsomes assessed as intrinsic clearance; format: ADME, Canis lupus familiaris, Microsome; conditions: read-out: CLH
# [4] = Dissociation constant, pKa of the compound; format: physicochemical
# Cytochrome P450 2D6 = Cytochrome P450 2D6 (Homo sapiens, UniProt P10635); test: Inhibition of CYP2D6 (unknown origin); format: ADME
# Sequence of Cytochrome P450 2D6 (P10635 whole entry): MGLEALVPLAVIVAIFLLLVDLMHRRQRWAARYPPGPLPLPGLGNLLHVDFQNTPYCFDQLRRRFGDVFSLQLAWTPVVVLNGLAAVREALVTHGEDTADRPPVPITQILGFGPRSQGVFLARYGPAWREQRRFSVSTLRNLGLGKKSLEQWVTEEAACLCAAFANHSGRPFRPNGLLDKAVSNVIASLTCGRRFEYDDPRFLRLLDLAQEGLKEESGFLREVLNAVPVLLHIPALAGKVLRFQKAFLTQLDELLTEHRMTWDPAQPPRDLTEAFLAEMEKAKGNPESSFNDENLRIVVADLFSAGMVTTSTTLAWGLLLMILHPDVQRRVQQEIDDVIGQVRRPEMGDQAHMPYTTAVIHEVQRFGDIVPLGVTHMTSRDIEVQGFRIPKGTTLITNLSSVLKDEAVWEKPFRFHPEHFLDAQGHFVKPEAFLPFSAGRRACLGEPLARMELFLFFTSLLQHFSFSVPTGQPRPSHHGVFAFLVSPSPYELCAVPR
# [5] = Efflux ratio of apparent permeability across basolateral to apical over apical to basolateral side in MDCK cells; format: ADME, cell-based, Canis lupus familiaris; conditions: dog
# [6] = Metabolic stability in human liver microsomes assessed as intrinsic clearance; format: ADME, Microsome; conditions: read-out: CLH
# Beta-secretase 1 [7] = target: T1, Beta-secretase 1; test: Inhibition of BACE1 (unknown origin) assessed as reduction in Abeta42 level by cell based assay
# T1 sequence (P56817 whole entry): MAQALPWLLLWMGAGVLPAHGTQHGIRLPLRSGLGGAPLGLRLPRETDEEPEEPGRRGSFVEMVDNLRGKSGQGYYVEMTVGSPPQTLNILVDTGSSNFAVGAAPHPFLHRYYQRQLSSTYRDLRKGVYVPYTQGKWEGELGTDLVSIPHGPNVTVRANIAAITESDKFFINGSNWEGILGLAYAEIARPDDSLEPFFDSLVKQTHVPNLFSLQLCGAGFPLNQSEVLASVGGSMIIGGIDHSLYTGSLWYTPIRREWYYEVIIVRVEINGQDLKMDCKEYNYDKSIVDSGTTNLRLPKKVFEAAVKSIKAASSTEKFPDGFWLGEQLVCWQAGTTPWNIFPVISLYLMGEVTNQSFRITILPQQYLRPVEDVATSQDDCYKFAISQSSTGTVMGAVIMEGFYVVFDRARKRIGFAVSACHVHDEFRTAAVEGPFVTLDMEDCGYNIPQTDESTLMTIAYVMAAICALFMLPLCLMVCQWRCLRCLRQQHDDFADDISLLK
# Sequence of Voltage-gated inwardly rectifying potassium channel KCNH2 (Q12809 whole entry): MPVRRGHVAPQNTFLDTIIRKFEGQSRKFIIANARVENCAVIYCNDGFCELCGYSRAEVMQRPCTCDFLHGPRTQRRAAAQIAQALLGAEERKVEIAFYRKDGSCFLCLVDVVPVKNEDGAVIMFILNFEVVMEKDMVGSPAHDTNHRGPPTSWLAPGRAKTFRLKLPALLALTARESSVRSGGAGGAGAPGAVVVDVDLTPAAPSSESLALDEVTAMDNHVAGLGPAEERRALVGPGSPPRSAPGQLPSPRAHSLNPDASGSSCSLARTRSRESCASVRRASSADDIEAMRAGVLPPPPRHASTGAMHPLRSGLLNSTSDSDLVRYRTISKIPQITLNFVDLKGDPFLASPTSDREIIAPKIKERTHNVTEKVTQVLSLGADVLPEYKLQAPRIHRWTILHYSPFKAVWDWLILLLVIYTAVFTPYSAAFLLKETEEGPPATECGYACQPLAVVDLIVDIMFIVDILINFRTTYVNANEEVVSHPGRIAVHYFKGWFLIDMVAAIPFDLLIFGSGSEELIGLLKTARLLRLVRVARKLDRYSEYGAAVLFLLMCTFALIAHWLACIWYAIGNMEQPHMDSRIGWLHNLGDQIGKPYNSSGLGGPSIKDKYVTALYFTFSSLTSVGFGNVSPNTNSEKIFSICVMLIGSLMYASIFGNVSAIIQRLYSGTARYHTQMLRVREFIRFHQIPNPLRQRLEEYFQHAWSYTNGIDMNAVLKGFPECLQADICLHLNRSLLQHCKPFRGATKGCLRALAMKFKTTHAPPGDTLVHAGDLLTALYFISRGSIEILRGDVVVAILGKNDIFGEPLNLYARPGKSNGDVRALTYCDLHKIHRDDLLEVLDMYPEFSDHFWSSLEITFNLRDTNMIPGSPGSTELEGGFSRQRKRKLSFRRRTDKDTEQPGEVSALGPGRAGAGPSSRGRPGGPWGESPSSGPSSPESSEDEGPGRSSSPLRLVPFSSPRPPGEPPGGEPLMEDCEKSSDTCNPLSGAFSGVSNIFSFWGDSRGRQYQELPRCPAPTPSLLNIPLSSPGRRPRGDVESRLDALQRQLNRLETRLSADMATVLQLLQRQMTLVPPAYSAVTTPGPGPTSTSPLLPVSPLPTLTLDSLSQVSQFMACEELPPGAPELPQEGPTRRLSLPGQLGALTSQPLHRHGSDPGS
SMILES,IC50 [1] [nM],Ratio IC50 (Homo sapiens),IC50 (Beta-secretase 1 [2]) [nM],IC50 (Beta-secretase 2) [nM],microsomal CLint [3] [µL/min/mg],pKa [4],IC50 (Cytochrome P450 2D6) [nM],efflux ratio [5],microsomal CLint [6] [µL/min/mg],IC50 (Beta-secretase 1 [7]) [nM]
NC1=N[C@@]2(c3cc(NC(=O)c4cnc(OCF)cn4)ccc3F)CO[C@@H](CF)C[C@H]2CC1(F)F,> 10000,3.6,2.5,8.9,< 7.7,6.4,> 10000,12,24.9,4.8
NC1=N[C@](CF)(c2cc(NC(=O)c3cnc(OCF)cn3)ccc2F)CCC1(F)F,–,–,8.9,138,< 7.7,6.3,–,–,< 7.7,93.3
C[C@H]1C[C@H]2CC(F)(F)C(N)=N[C@@]2(c2cc(NC(=O)c3cnc(OCF)cn3)ccc2F)CO1,> 10000,4.5,1.5,6.8,18.6,6.6,> 10000,5,119,3.5
NC1=N[C@@]2(c3cc(NC(=O)c4cnc(OCF)cn4)ccc3F)COCC[C@H]2CC1(F)F (racemic),> 10000,3,3.5,10.2,15.5,6.6,> 10000,4.7,46.2,7.1
NC1=N[C@@]2(c3cc(NC(=O)c4cnc(OCF)cn4)ccc3F)CCOC[C@H]2CC1(F)F (racemic),> 10000,13.5,79.4,1070,11.8,6.7,> 10000,8.4,35.3,170
C[C@@]1(c2cc(NC(=O)c3cnc(OCF)cn3)ccc2F)CCC(F)(F)C(N)=N1,> 10000,11,11.5,126,10.2,7.6,1000,2.1,10.1,16.2
